{"source": "patent US20220048878A1", "about": "“IMPROVEMENT IN OR RELATING TO ORGANIC COMPOUNDS” (GIVAUDAN SA, priority 2018, published 2022)", "key": {"[1]": {"tested_on": "male rats", "assay": "Repeated dose 28-day oral toxicity study in rats (OECD Guideline 407), reproductive organs and sperm analysis", "type": "in vivo", "conditions": "for Motile Sperms (%) / Sperm cells with normal morphology (count/total) / Sperm cells with normal morphology (percent) / Number of sperms per gram: male rats", "description": "An isomeric mixture obtained according to Example 1 b was tested in a repeated dose 28-day oral toxicity study in rats according to OECD Guideline 407 (OECD, Paris, October 2008). Groups of animals (n=5) were fed with a diet containing the test item to obtain a daily ingested dose of 100 mg/kg body weight/day, 300 mg/kg body weight/day and 1000 mg/kg body weight/day. The animals were treated for 28 days. After this period, they were sacrificed and their organs were examined by pathological examination for gross lesions, weight changes and further investigated by histopathology. The seminal fluid from the epididymis was sampled and analyzed microscopically for number, morphology and motility of sperms.\nAll treated groups were compared to the control group with a Dunnett-test based on pooled variance and a Steel-test."}, "[2]": {"conditions": "cited from earlier work"}, "[3]": {"tested_on": "male rats", "conditions": "cited from earlier work"}, "[4]": {"conditions": "rats, 100, 300 and 1000 mg/kg body weight/day, 28 days"}, "[5]": {"conditions": "male rats, 1000 mg/kg body weight per day"}, "[6]": {"conditions": "male rats, 300 or 1000 mg/kg body weight per day"}}, "note": "Like-named read-outs stand apart in the source and are kept apart here.", "data": [{"molecule": "CCC(C)=CC1CC(C)CCO1", "note": "(stereo not drawn) [Example 1b, 4-methyl-2-(2-methylbut-1-en-1-yl)tetrahydro-2H-pyran]", "values": [{"measurement": "Effect on key parameters of male fertility", "setting": "[1]; 28 days, up to 1000 mg/kg bw/d", "value": "no effect"}, {"measurement": "Difference in sperm parameters between control group and treated groups", "setting": "[1]; Dunnett-test and Steel-test, p=0.05 significance level", "value": "No significant differences"}, {"measurement": "Motile Sperms (%)", "setting": "[1]; 100 mg/kg bw/d, 28 days", "value": "63 ± 12", "unit": "%"}, {"measurement": "Sperm cells with normal morphology (count/total)", "setting": "[1]; 100 mg/kg bw/d, 28 days", "value": "156/246"}, {"measurement": "Sperm cells with normal morphology (percent)", "setting": "[1]; 100 mg/kg bw/d, 28 days", "value": "(63.4%)"}, {"measurement": "Motile Sperms (%)", "setting": "[1]; 300 mg/kg bw/d, 28 days", "value": "47 ± 13", "unit": "%"}, {"measurement": "Sperm cells with normal morphology (count/total)", "setting": "[1]; 300 mg/kg bw/d, 28 days", "value": "170/210"}, {"measurement": "Sperm cells with normal morphology (percent)", "setting": "[1]; 300 mg/kg bw/d, 28 days", "value": "(81.0%)"}, {"measurement": "Motile Sperms (%)", "setting": "[1]; 1000 mg/kg bw/d, 28 days", "value": "53 ± 23", "unit": "%"}, {"measurement": "Sperm cells with normal morphology (count/total)", "setting": "[1]; 1000 mg/kg bw/d, 28 days", "value": "158/197"}, {"measurement": "Sperm cells with normal morphology (percent)", "setting": "[1]; 1000 mg/kg bw/d, 28 days", "value": "(80.2%)"}, {"measurement": "Number of sperms per gram", "setting": "[1]; n = 5, 100 mg/kg bw/d in diet, 28 days", "value": "3.9 ± 0.9 × 10^8"}, {"measurement": "Number of sperms per gram", "setting": "[1]; n = 5, 300 mg/kg bw/d in diet, 28 days", "value": "4.0 ± 0.9 × 10^8"}, {"measurement": "Number of sperms per gram", "setting": "[1]; n = 5, 1000 mg/kg bw/d in diet, 28 days", "value": "4.0 ± 1.9 × 10^8"}, {"measurement": "Macroscopic changes to reproductive organs", "setting": "[1]; [4]", "value": "no macroscopic changes"}, {"measurement": "Weight of the reproductive organs versus control group", "setting": "[1]; [4]", "value": "not different from the control group"}]}, {"molecule": "CCC(C)=C[C@@H]1C[C@H](C)CCO1", "note": "(relative stereo) [rel-(2S,4R)-4-methyl-2-(2-methylbut-1-en-1-yl)tetrahydro-2H-pyran]", "values": [{"measurement": "Suppression of sperm formation", "setting": "[1]; rats", "value": "does not suppress sperm formation"}]}, {"molecule": "CC(C)=CC1CC(C)CCO1", "note": "(racemic) [Rose Oxide, 4-methyl-2-(2-methylprop-1-en-1-yl)tetrahydro-2H-pyran]", "values": [{"measurement": "Time to evaporate on a smelling strip", "setting": "[2]; smelling strip", "value": "≤ 30", "unit": "min"}, {"measurement": "Effects on sperm formation", "setting": "[3]; 28 days, OECD guideline 407, middle (300 mg/kg bw/d) and high (1000 mg/kg bw/d) dose", "value": "clear-cut effects on sperm formation"}, {"measurement": "Classification (REACH/ECHA)", "setting": "[3]; classification provided by companies to ECHA", "value": "CMR2"}, {"measurement": "Severity of immature ducts in distal corpus and/or cauda epididymis (histopathology)", "setting": "[3]; male rats, 300 mg/kg body weight per day", "value": "minimal to slight"}, {"measurement": "Severity of immature ducts in distal corpus and/or cauda epididymis (histopathology)", "setting": "[3]; [5]", "value": "slight to severe"}, {"measurement": "Weight increase of the epididymis, absolute", "setting": "[3]; [5]", "value": 33, "unit": "%"}, {"measurement": "Weight increase of the epididymis, relative", "setting": "[3]; [5]", "value": 26, "unit": "%"}, {"measurement": "Sperm function and morphology in the cauda epididymis", "setting": "[3]; [6]", "value": "adversely affected"}, {"measurement": "Sperm numbers", "setting": "[3]; [6]", "value": "significantly reduced"}]}, {"molecule": "CC1CCOC(c2ccccc2)C1", "note": "(stereo not drawn) [Doremox®, 4-methyl-2-phenyltetrahydro-2H-pyran]", "values": [{"measurement": "Lastingness compared to Rose Oxide", "setting": "[2]; background statement", "value": "too long-lasting compared to Rose Oxide"}]}]}
